Test results from patent US8530468B2 (Cancer Research Technology Limited, priority 2008, dated 2013).

Experiments:
HT29 cells = experiment: Mitosis inhibition assay (MIA), checkpoint abrogation after etoposide; type: cell-based; conditions: Homo sapiens, HT-29, etoposide 50 μM 1 hour, then compound with nocodazole 100 ng/mL, 21 hours, read-out: MIA IC50 (concentration required to allow 50% of cells to enter mitosis)
CHK1 = molecular target: T1, CHK1 (Homo sapiens, UniProt O14757); experiment: CHK1 kinase function inhibition (DELFIA assay, phosphorylation of CDC25C peptide); type: biochemical; conditions: CHK1 1 nM, ATP 30 μM, 30 minutes at room temperature
T1 sequence (O14757 1-476): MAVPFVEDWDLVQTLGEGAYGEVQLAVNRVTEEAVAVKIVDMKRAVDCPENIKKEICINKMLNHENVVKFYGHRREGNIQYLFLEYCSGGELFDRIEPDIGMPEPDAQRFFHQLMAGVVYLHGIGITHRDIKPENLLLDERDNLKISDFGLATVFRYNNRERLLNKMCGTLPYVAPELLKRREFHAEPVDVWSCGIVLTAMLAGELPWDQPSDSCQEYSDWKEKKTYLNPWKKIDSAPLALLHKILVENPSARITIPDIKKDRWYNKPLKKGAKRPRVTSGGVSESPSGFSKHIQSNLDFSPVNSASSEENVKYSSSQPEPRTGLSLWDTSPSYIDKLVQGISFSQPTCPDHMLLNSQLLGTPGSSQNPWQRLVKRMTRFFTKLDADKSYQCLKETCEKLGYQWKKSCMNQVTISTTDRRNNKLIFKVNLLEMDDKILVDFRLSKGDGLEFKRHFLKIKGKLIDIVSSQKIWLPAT

[1] = test system: HT29 colon carcinoma cells; experiment: Cytotoxicity assay (SRB); type: cell-based; conditions: Homo sapiens, HT-29, 96 hours, read-out: SRB IC50 (concentration required to inhibit growth by 50%)

SMILES | IC50 (HT29 cells) [µM] | IC50 (CHK1) [µM] | IC50 [1] [µM]
CC(CN(C)C)Oc1nc(Nc2cc3cccc(NCCCO)c3cn2)cnc1C#N (stereo not drawn) [AA-034] | ≤ 10 | ≤ 1 | ≤ 10
COCCNc1cccc2cc(Nc3cnc(C#N)c(O[C@@H]4CCNC4)n3)ncc12 [AA-037] | ≤ 10 | ≤ 1 | ≤ 10
COCCCNc1cccc2cc(Nc3cnc(C#N)c(O[C@H](C)CN(C)C)n3)ncc12 [AA-038] | ≤ 10 | ≤ 1 | ≤ 10
N#Cc1ncc(Nc2cc3cccc(NCCCO)c3cn2)nc1O[C@@H]1CCNC1 [AA-040] | ≤ 10 | ≤ 1 | ≤ 10
C[C@H](CN(C)C)Oc1nc(Nc2cc3cccc(NCCCO)c3cn2)cnc1C#N [AA-041] | ≤ 10 | ≤ 1 | ≤ 10
N#Cc1ncc(Nc2cc3cccc(NCCO)c3cn2)nc1OC[C@H]1CNCCO1 [AA-043] | ≤ 10 | ≤ 1 | ≤ 10
N#Cc1ncc(Nc2cc3cccc(NCCO)c3cn2)nc1O[C@@H]1CCNC1 [AA-044] | ≤ 10 | ≤ 1 | ≤ 10
N#Cc1ncc(Nc2cc3ccccc3cn2)nc1OC[C@H]1CNCCO1 [AA-049] | ≤ 10 | ≤ 1 | ≤ 10
N#Cc1ncc(Nc2cc3ccccc3cn2)nc1O[C@@H]1CCNC1 [AA-050] | ≤ 10 | ≤ 1 | ≤ 10
N#Cc1ncc(Nc2cc3cccc(Br)c3cn2)nc1OC[C@H]1CNCCO1 [AA-051] | ≤ 10 | ≤ 1 | ≤ 10
N#Cc1ncc(Nc2cc3cccc(Br)c3cn2)nc1O[C@@H]1CCNC1 [AA-052] | ≤ 10 | ≤ 1 | ≤ 10
C[C@H](CN(C)C)Oc1nc(Nc2cc3cccc(F)c3cn2)cnc1C#N [AA-054] | ≤ 10 | ≤ 1 | ≤ 10
N#Cc1ncc(Nc2cc3cccc(C(F)(F)F)c3cn2)nc1O[C@@H]1CCNC1 [AA-055] | ≤ 10 | ≤ 1 | ≤ 10
Cc1cccc2cc(Nc3cnc(C#N)c(O[C@H](C)CN(C)C)n3)ncc12 [AA-057] | ≤ 10 | ≤ 1 | ≤ 10
Cc1cccc2cc(Nc3cnc(C#N)c(O[C@@H]4CCNC4)n3)ncc12 [AA-058] | ≤ 10 | ≤ 1 | ≤ 10
CNc1cccc2cc(Nc3cnc(C#N)cn3)ncc12 [AA-059] | ≤ 10 | ≤ 1 | ≤ 10
CNc1cccc2cc(Nc3cnc(C#N)c(OC(C)CN(C)C)n3)ncc12 (stereo not drawn) [AA-060] | ≤ 10 | ≤ 1 | ≤ 10
N#Cc1cnc(Nc2cc3cccc(N)c3cn2)cn1 [AA-061, 5-(8-Aminoisoquinolin-3-ylamino)pyrazine-2-carbonitrile] | ≤ 10 | ≤ 1 | ≤ 10
COc1cccc2cc(Nc3cnc(C#N)c(O[C@H](C)CN(C)C)n3)ncc12 [AA-067, (R)-3-(1-(Dimethylamino)propan-2-yloxy)-5-(8-methoxyisoquinolin-3-ylamino)pyrazine-2-carbonitrile] | ≤ 10 | ≤ 1 | ≤ 10
